Test results taken from patent US9617263B2, “Phenyl-triazolo-pyridine compounds” (Eli Lilly and Company, priority 2014, dated 2017).

How the values were obtained:
[1] = target: T1, PPARα (Homo sapiens, UniProt Q07869); experiment: Gal4 PPARα reporter (CTF) functional assay in CV1 cells; format: cell-based; settings: versus 10 μM PPAR agonist reference compound
T1 construct: expressed in transfected cells; host or cells: CV1 (African green monkey kidney)
T1 sequence (Q07869 239-466 limits assumed): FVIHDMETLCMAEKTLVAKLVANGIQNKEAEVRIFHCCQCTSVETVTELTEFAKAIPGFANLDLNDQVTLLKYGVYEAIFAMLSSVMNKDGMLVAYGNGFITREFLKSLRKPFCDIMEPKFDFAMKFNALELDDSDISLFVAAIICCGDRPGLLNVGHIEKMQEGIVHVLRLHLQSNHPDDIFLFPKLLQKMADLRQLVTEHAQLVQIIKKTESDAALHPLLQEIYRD
Protocol: (§1) Because GPR40 is known to be activated by ligands to PPARγ, exemplified compounds are examined in Gal4 PPARα, Gal4 PPARδ, and PPARγ reporter assays to determine the selectivity of exemplified compounds for PPAR receptors. CV1 cells, which are derived from the renal tissue of an African green monkey, are transfected with various receptor and reporter plasmids using Fugene. […] After 24 hours incubation with compounds, cells are lysed and luciferase activity is determined as a measure of receptor activation by luminescence. […] The maximum percent stimulation is determined versus maximum stimulation obtained with 10 μM of an appropriate PPAR agonist reference compound, 2-methyl-2-(4-{2-methyl-3-[2-(phenylcarbonyl)-4-(trifluoromethoxy)phenoxy]propoxy}phenoxy)propanoic acid. […] Efficacy was negative for PPARα, PPARδ, and PPARγ is detected with the compound of Example 1 when examined up to […] in the specific PPAR co-transfection (CTF) functional assays described above. […]

[2] = target: T2, PPARδ (Homo sapiens, UniProt Q03181); experiment: Gal4 PPARδ reporter (CTF) functional assay in CV1 cells; format: cell-based; settings: examined up to 10 M; versus 10 μM PPAR agonist reference compound
T2 construct: expressed in transfected cells; host or cells: CV1 (African green monkey kidney)
T2 sequence (Q03181 211-439 limits assumed): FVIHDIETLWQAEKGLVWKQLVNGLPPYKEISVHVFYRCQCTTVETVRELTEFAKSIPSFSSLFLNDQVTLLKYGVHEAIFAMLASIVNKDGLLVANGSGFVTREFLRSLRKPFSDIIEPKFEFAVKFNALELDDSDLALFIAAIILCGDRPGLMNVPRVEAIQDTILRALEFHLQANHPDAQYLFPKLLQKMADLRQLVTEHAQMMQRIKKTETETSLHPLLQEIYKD
Protocol: as §1

[3] = target: T3, human GPR40 (hGPR40) (Homo sapiens, UniProt O14842); experiment: Radioligand competition binding with [3H]TAK-875, HEK293 membranes; settings: 5 nM [3H]TAK-875; Cheng-Prusoff; Mean±SEM
T3 construct: expressed in transfected cells; host or cells: HEK293 (membranes)
Description: Competition curves are plotted as the percent specific inhibition versus concentration of compound and analyzed using a four parameter nonlinear regression fit with variable slope. […] See Cheng, Y. and Prusoff, W. H. (1973) “Relationship between the inhibition constant (Ki) and the concentration of inhibitor which causes 50 percent inhibition (IC50) of an enzymatic reaction,” Biochem Pharmacol 22(23):3099-3108. (Mean±SEM; SEM=standard error of the mean.).

[4] = target: T4, mGPR40 (Mus musculus, UniProt Q76JU9); experiment: Mouse beta-arrestin agonist assay with 1% FBS (PathHunter, U2OS mFFAR1); format: cell-based
T4 construct: host or cells: U2OS
Description: (§2) Human embryonic kidney (hEK293)-hFFAR1 cells are purchased from DiscoveRx. Human osteosarcoma (U2OS) cells expressing mFFAR1 are developed by DiscoveRX. These cells co-express the Prolink (PK)-tagged GPR40 and the Enzyme Acceptor (EA)-tagged beta-arrestin fusion proteins. If activation of the GPR40 stimulates beta-arrestin recruitment, it would force complementation of the beta galactosidase (B-gal) enzyme fragments, forming a B-gal enzyme that generates a chemiluminescent signal using the DiscoveRx PathHunter detection kit. Cells are incubated overnight at 5,000 cells/well in 384 well plates in culture media containing 1% FBS (fetal bovine serum). Serial diluted compounds in DMSO (2× dilutions to generate 20 concentrations) are step down diluted in culture media containing 1% FBS (fetal bovine serum) and added to cells with a final top concentration starting of 100 μM. After addition of compounds, cells are incubated for 90 min at 37° C. in 5% CO2 incubator, and DiscoveRX kit detection reagents are added. Measurement of the chemiluminescent signal is ascertained with the Envision reader, after a 1-hour incubation at room temperature. Data are fit to a 4 parameter-fit logistics to determine EC50 values; % activity is measured versus maximum response to TAK875 at 1 μM.

[5] = tested on: Zucker fa/fa rats; experiment: Acute oral glucose tolerance test (OGTT); format: in vivo, rat
Protocol: OGTTs are performed in Zucker fa/fa rats, a rodent model of insulin resistance, after 1 and 21 days of orally administered material at 1.0, 3.0 and 10 mg/kg. TAK875 at 1 mg/kg served as the positive control. The OGTTs are performed one hour post compound administration with blood samples taken for determination of glucose and insulin levels at 10, 20, 40, 60, and 120 minutes post glucose administration.

[6] = target: hGPR40 (Homo sapiens, UniProt O14842); experiment: Human beta-arrestin agonist assay with 1% FBS (PathHunter, hEK293-hFFAR1); format: cell-based; design: host or cells: HEK293 (hEK293-hFFAR1 PathHunter cells)
Description: as §2

[7] = versus maximum response to TAK875 at 1 μM

T4 sequence (Q76JU9 whole entry): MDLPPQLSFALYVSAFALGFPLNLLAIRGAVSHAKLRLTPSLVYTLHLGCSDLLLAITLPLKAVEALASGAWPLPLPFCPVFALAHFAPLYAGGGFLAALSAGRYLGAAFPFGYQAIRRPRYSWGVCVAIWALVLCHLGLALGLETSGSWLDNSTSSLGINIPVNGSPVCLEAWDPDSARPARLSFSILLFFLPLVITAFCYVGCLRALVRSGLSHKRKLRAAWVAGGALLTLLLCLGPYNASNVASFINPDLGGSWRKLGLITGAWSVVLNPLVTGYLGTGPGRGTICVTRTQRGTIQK
T4 sequence (P32121 whole entry partner): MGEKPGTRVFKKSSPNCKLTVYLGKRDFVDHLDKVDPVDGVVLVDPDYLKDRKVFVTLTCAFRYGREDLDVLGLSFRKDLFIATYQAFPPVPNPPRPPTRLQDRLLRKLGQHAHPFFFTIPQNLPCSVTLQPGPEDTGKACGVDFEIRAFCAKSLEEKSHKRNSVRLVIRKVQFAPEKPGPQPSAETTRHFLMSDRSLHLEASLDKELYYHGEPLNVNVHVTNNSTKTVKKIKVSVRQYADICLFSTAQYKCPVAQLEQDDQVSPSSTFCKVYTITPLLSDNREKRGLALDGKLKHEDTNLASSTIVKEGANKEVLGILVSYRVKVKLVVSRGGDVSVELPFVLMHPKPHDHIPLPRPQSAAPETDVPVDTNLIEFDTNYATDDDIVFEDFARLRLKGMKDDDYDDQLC
Chain of hGPR40 (O14842 whole entry): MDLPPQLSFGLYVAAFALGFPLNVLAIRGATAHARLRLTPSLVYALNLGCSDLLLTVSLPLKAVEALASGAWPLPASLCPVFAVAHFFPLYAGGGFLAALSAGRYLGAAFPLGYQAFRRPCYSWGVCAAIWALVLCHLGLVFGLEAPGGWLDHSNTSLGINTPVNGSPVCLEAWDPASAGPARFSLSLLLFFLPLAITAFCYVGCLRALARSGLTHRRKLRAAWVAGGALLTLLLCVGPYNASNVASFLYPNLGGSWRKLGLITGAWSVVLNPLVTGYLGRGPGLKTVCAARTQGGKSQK
Chain of hGPR40 (P32121 whole entry partner): as the sequence (P32121 whole entry partner) above
T3 sequence (O14842 whole entry): as the sequence (O14842 whole entry) above

Ki [3]: 24.6 nM
EC50 ([4]; 1% FBS, 90 min, read-out: mGPR40 b-arrestin EC50): 4.02 nM
mGPR40 b-arrestin % stimulation max (FA) [4, 7]: 160%
EC50 ([6]; 1% FBS, 90 min, read-out: hGPR40 b-arrestin EC50): 47.4 nM
hGPR40 b-arrestin % stimulation max (FA) [6, 7]: 163%
Structure (SMILES): CC#C[C@@H](CC(=O)O)c1ccc(OCc2cc(-c3ccccc3C)cn3ncnc23)cc1 [Example 1, (S)-3-[4-(6-o-Tolyl-[1,2,4]triazolo[1,5-a]pyridin-8-ylmethoxy)-phenyl]-hex-4-ynoic acid]
Efficacy for PPARα [1]: negative (Efficacy of <20% is considered negative)
Efficacy for PPARδ [2]: negative (Efficacy of <20% is considered negative)
ED90 for glucose lowering ([5]; oral): 3.3 mg/kg
Insulin AUCs during the OGTTs ([5]; oral 1, 3, 10 mg/kg, values not statistically significant): dose dependent elevation
AUCs for glucose lowering ([5]; oral, Example 1 at 1, 3 and 10 mg/kg, TAK875 at 1 mg/kg, p<0.05): statistically significant
